What was measured:
[1] = test system: MRC5 cells; experiment: Microscopic evaluation of cytotoxicity in MRC5 cells; type: cell-based; settings: vesnarinone up to 31 μg/ml, alone or with DHPG
[2] = test system: Akata cells; experiment: dNTP pools in Akata cells (enzymatic method); settings: 100 μg/ml vesnarinone
Protocol: After a 10 min incubation on ice, the supernatant containing dNTPs was removed, frozen and evaporated with a rotary evaporator. The residue was dissolved in 100 μl of H2 O, and a 10 μl aliquot of this solution was used for the measurement of dNTP pool.
More specifically, 10 μl of the sample or a dNTP standard solution was mixed with 40 μl of the reaction buffer comprising 62.5 mMTris-HCl (pH 7.8), 0.625 mM DTT, 0.125 mg/ml calf thymus DNA (Sigma), 0.625 mg/ml BSA, 10 mM MgCl2, 6.25 μM three dNTPs, and 5.0 μCi/ml [^3 H]dATP (ICN, Costa Mesa, Calif.), for measurement of dTTP, dCTP, and dGTP, or [^3 H]dTTP (ICN), for measurement of dATP. The reaction solution was then mixed with 1.0 unit of E. coli DNA polymerase I (Boehringer Mannheim), and incubated for 40 min at 37° C. After completion of the reaction, the mixture was applied to Whatman DE-81 paper filters and radioactivity was determined using a liquid scintillation counter after three washes with 0.35M Na2 HPO4 (pH 7.5). Amounts of dNTP in the samples were calculated according to the calibration curves estimated by a set of standard dNTP samples.
In parallel, to measurement of the content of dNTPs in the untreated Akata cells after release, the dNTP pool in anti-IgG treated Akata cells was also measured in the same manner.

[3] = test system: primary human T lymphocytes; experiment: Rapid uptake of [3H]thymidine / [3H]AZT in PHA-activated human T cells; settings: 0-250 μM vesnarinone, 1 min
Protocol: Human PBMC were obtained by leukopheresis of HIV-1 and HBV Zeronegative healthy donors. Mononuclear cell suspensions were prepared therefrom by Ficoll-Hypaque gradient centrifugation, and the T cells were obtained therefrom by E-rosette enrichment as described by Terada et al, J. Immunol., 147:698-704 (1991).
Then, 1.0 μCi/ml of [^3 H]thymidine (6.7 Ci/mmol) or 1.0 μCi/ml of [^3 H]AZT (14 Ci/mmol) was added, and the mixture was immediately layered on silicone oil/paraffin oil (96:6) in microfuge tubes. […] The water and oil phases were discarded, and radioactivity of the cell pellets was measured using liquid scintillation counting.

[4] = test system: human T cells; experiment: [3H]thymidine incorporation by PHA-stimulated human T cells; type: cell-based; settings: 10 μg/ml PHA 48 hrs, 0-250 μM vesnarinone, 6 hrs pulse
Protocol: More specifically, human primary T cells were separated from peripheral blood obtained by leukopheresis of healthy donors. Mononuclear cell suspensions were prepared by Ficoll-Hypaque gradient centrifugation, and T cells were obtained by E-rosette enrichment as described by Kumagai et al, J. Cell. Physiol., 137:329 (1988).
Then, 1.0 μCi of [^3 H]thymidine (6.7 Ci/mmole, ICN), was added to 2.0×10^6 cells (100 μl), and the cells were pulse-labeled for 6 hrs.

[5] = test system: human T cells; experiment: Cell numbers of PHA-stimulated human T cells over 120 hrs; type: cell-based; settings: 10 μg/ml PHA, 0-120 hrs; 250 μM vesnarinone, 15 nM aphidicolin or 100 μM deferoxamine
Protocol: Next, the effects of the above-described drugs on cell proliferation were evaluated over a period of 120 hrs.

[6] = test system: human T cells; experiment: Cellular DNA content by flow cytometry (propidium iodide); type: cell-based; settings: within 48 hrs; 250 μM vesnarinone, 15 nM aphidicolin or 100 μM deferoxamine
Protocol: Next, cellular DNA content was evaluated over the 0-120 hrs treatment period. More specifically, 10^6 T cells treated in the same manner as described above, were fixed with 70% (v/v) ethanol at 4° C. overnight, centrifuged and washed with phosphate buffered saline (PBS). The fixed cells were incubated with 0.5 ml of 0.25 mg/ml ribonuclease (Sigma, St. Louis, Mo.) in PBS at 37° C. for 10 min. The cell suspension was mixed with 0.5 ml of a 50 μg/ml propidium iodide (Calbiochem, La Jolla, Calif.) solution in PBS, and after 60 min analyzed by flow cytometry (EPICS Profile, Coulter, Hialeah, Fla.), collecting red fluorescence (>600 nm) with 488 nm excitation.

[7] = test system: nucleoside and nucleobase transport in human T cells; experiment: [3H]nucleoside / [3H]nucleobase transport, 1 min pulse, T cells; type: cell-based; settings: 250 μM vesnarinone, 100 μM deferoxamine, 15 nM aphidicolin or 1.0 μM dipyridamole
[8] = some patients; cited from earlier work
[9] = test system: ZEBRA; experiment: Flow cytometric detection of ZEBRA in Akata cells; type: cell-based, Epstein-Barr virus; settings: 3 hrs after anti-IgG; vesnarinone 0-100 μg/ml
Protocol: The human Burkitt's lymphoma cell line, Akata, provided by Dr. Kenzo Takada (Takada, Int. J. Cancer, 33:27-32 (1984); and Takada et al, Virus Genes, 5:147-156 (1991)), was cultured at 37° C. in RPMI 1640 medium supplemented with 15% (v/v) heat-inactivated FCS, and 20 μg/ml gentamicin.
The cell progression of Akata cells was arrested by culturing of the cells for 96 hrs in the presence of 1.5% (y/v) DMSO (Sigma, St. Louis, Mo.) (Sawai et al, Exp. Cell Res., 187:4-10 (1990); and Takase et al, Cell Growth Differ., 3:515-521 (1992)).
1 hr after transfer (release from DMSO), a goat F(ab')2 fragment of anti-human IgG antibody (Organon Teknika, Durham, N.C.) was added at a concentration of 50 μg/ml to induce productive EBV replication (Takagi et al, Virology, 185:309-315 (1991)). […]
For flow cytometric detection of ZEBRA, after a 60 min fixation with 70% (v/v) ethanol at 4° C., 10^6 cells were centrifuged, and washed with PBS. […] The cells were washed with PBS again, and analyzed by flow cytometry (Epics Profile, Coulter), monitoring fluorescence (520-540 nm) in a logarithmic scale with 488 nm excitation. The positivity for ZEBRA was calculated by a non-linear least squares method (Takase et al, J. Immunol. Methods, 118:129-138 (1989)).

[10] = test system: EBV; experiment: Productive replication of EBV in growing Akata cells (in situ hybridization); type: cell-based, Epstein-Barr virus; settings: for positivity for EBV DNA: 20 μg/ml vesnarinone
Protocol: 1 hr later, anti-IgG was added to the cultures at a final concentration of 50 μg/ml, and the cells were harvested for in situ hybridization of EBV DNA 24 hrs later as described above.

[11] = 31 μg/ml vesnarinone in overlay medium

COc1ccc(C(=O)N2CCN(c3ccc4c(c3)CCC(=O)N4)CC2)cc1OC [vesnarinone, 3,4-dihydro-6-[4-(3,4-dimethoxybenzoyl)-1-piperazinyl]-2(1H)-quinoline]
cytotoxicity by microscopic evaluation [1]: No cytotoxicity was observed | cellular content of dATP and dGTP ([2]; 13 hrs after DMSO release, without anti-IgG): displayed progressive reductions 13 hrs after release in the presence of vesnarinone | level of dTTP in anti-IgG treated cells ([2]; 20 hrs after anti-IgG): partially suppressed in the presence of vesnarinone | cellular content of dCTP ([2]; after DMSO release): remained low in the presence or absence of vesnarinone | cellular content of dTTP ([2]; after DMSO release, without anti-IgG): the levels of dTTP remained quite low | uptake of [3H]AZT [3]: the uptake of [^3 H]AZT was not affected by vesnarinone | uptake of [3H]thymidine [3]: inhibits the uptake of [^3 H]thymidine in a dose-dependent manner | [3H]thymidine incorporation into DNA [4]: inhibits [^3 H]thymidine incorporation into DNA in a dose-dependent manner | cell proliferation (cell number) [5]: inhibited cell proliferation when compared to control cultures, but increases in cell number were nonetheless observed | entry into S and G2/M phases (cellular DNA content) [6]: a certain proportion of the cells entered both S and G2/M phases of the cell cycle | transport of [3H]thymidine, [3H]adenosine, [3H]adenine, [3H]uracil [7]: inhibited transportation of [^3 H]thymidine, [^3 H]adenosine, [^3 H]adenine, and also to a lesser extent, [^3 H]uracil | major side effect in patients [8]: agranulocytosis, a major side effect of vesnarinone observed in some patients | degree of positivity for ZEBRA [9]: not decreased by vesnarinone at concentrations less than or equal to 10 μg/ml | EBV production ([10]; 20 μg/ml vesnarinone only concurrently with anti-IgG treatment): displayed a more profound reduction of EBV production | positivity for EBV DNA ([10]; pre-treatment alone (7 days)): the degree of positivity for EBV DNA was higher | positivity for EBV DNA ([10]; pre-treatment+post-treatment or solely post-treatment): reduced the level of positivity for EBV DNA compared to untreated cells | precipitate observed in culture [11]: A small amount of precipitate was observed at 31 μg/ml of vesnarinone

From patent US5670520A, “Method for inhibiting virus replication in mammalian cells using carbostyil derivatives” (Otsuka Pharmaceutical Co., Ltd., priority 1996, dated 1997)
